Measured values: publication PMC4535766, “Antiprotozoal Activity Profiling of Approved Drugs: A Starting Point toward Drug Repositioning” (PLoS ONE, 2015)
Like-named read-outs stand apart in the source and are kept apart here.

What was measured:
in vitro = settings: rat
Procedure: (§1) Drug stock solutions (10mg/ml) were in DMSO (100%). […] Selectivity index (SI) was calculated as IC50 L6 cells/IC50 parasite.

[1] = system: T. cruzi, strain Tulahuen C4, intracellular amastigotes; test: microbe, parasite or virus in culture; settings: for IC50: Trypanosoma cruzi, TULAHUEN
Procedure: as §1

[2] = Cytotoxicity on macrophages infected with L. donovani; assay type: cell-based, mouse; settings: mouse
[3] = system: intracellular amastigotes of L. donovani strain MHOM-ET-67/L82; test: Activity against Leishmania donovani intracellular amastigotes in mouse peritoneal macrophages; settings: Leishmania donovani, Peritoneal macrophage, in Mus musculus
Procedure: After 24 h 1.2 x 10^5 amastigote L. donovani in 100 μl were added. The amastigotes were taken from an axenic culture grown at pH 5.4. Four hours later, the medium containing free amastigote forms was removed and replaced by fresh medium. The next day the medium was replaced by medium with or without a serial drug dilution of seven 3-fold dilution steps covering a range from 30 to 0.04 μg/ml. Parasite growth in the presence of the drug was compared to control wells. After 96 h of incubation, the medium was removed and the slides fixed with methanol for 10 min followed by staining with a 10% Giemsa solution. Infected and non-infected macrophages were counted for the control cultures and those exposed to the serial drug dilutions. The infection rates were determined. The results were expressed as a percentage reduction in parasite burden compared to control wells, and the IC50 was calculated by linear regression analysis. The collection of mouse peritoneal macrophages was done at the Swiss Tropical and Public Health Institute (Basel) according to the rules and regulations for the protection of animal rights ("Tierschutzverordnung") of the Swiss "Bundesamt für Veterinärwesen".

[4] = system: T. b. rhodesiense strain STIB 900, trypomastigotes; test: In vitro activity against T. b. rhodesiense, serial drug dilution assay; settings: for IC50: Trypanosoma brucei; for selectivity ratio: rat
Procedure: as §1

[5] = system: axenic amastigotes of L. donovani, strain MHOM-ET-67/L82; test: In vitro activity against L. donovani axenic amastigotes, serial drug dilution assay; assay type: cell-based, Leishmania donovani; settings: Leishmania donovani
Procedure: as §1

P. falciparum strain K1 = test: In vitro activity against P. falciparum, serial drug dilution assay; settings: for selectivity ratio: rat; for Activity against P. falciparum (in words): in vitro
Procedure: as §1

[6] = macrophages infected with L. donovani, read-out: IC50 Cytotox. mac.inf.
[7] = 96 h, read-out: IC50 L. don. intracell
[8] = axenic amastigotes, strain MHOM-ET-67/L82, means of two independent assays, read-out: IC50 L. don. axen.
[9] = Plasmodium falciparum, K1, read-out: IC50 P. falc. K1
[10] = L6 cells, IC50 Cytotox. L6, L6 cells, means of two independent assays
[11] = mouse peritoneal macrophages infected with L. donovani, macrophages infected with L. donovani, read-out: IC50 Cytotox. mac.inf.
[12] = Selectivity index: IC50 Cytotoxicity L6/ IC50 P. falciparum
[13] = L6 cells versus T. b. rhodesiense STIB 900 trypomastigotes
[14] = infected macrophages, read-out: Cytotox. mac.inf. IC50
[15] = read-out: L. don. intracell IC50
[16] = L. donovani axenic amastigotes, read-out: L. don. axen. IC50
[17] = Plasmodium falciparum, K1, read-out: P. falc. IC50

Row | Compound | IC50 (in vitro; IC50 Cytotox. L6) [µM] | IC50 ([1]; read-out: IC50 T. cruzi) [µM] | IC50 at 96 h [2, 6] [µM] | IC50 [3, 7] [µM] | IC50 ([4]; read-out: IC50 T. b. rhod.) [µM] | IC50 [5, 8] [µM] | IC50 (P. falciparum strain K1; [9]) [µM] | other results
1 | CN(C)CCCN1c2ccccc2Sc2ccc(Cl)cc21 [Chlorpromazine] | 12.3 | 17.2 | 31.4 | > 9.41 | 1.25 | 48.5 | 3.03 | 
2 | Cc1oncc1C(=O)Nc1ccc(C(F)(F)F)cc1 [Leflunomide] | 124 | 152 | > 111 | > 111 | 213 | 21.8 | > 18.5 | 
3 | COc1ccc2[nH]c([S+]([O-])Cc3ncc(C)c(OC)c3C)nc2c1 (stereo not shown) [Omeprazole] | 126 | 68.3 | > 86.9 | > 86.9 | 51.8 | 90.9 | 13.2 | 
4 | COc1cc(C)c2c(Oc3cccc(C(F)(F)F)c3)c(OC)cc(NC(C)CCCN)c2n1 (stereo not shown) [Tafenoquine] |  | 6.11 |  | 2.16 | 1.42 | 17.9 | 0.27 | IC50 (in vitro; [10]): 5.52 µM; IC50 at 96 h [2, 11]: 6.47 µM; selectivity ratio (P. falciparum strain K1; [12]): 20
5 | CCN(CCCCOC(=O)c1ccc(OC)c(OC)c1)C(C)Cc1ccc(OC)cc1 (stereo not shown) [Mebeverine] | 70.8 | 3.89 | > 69.8 | 54.9 | 54.2 | > 210 | 1.74 | selectivity ratio ([1]; rat, Selectivity index: IC50 Cytotoxicity L6/ IC50 T. cruzi): 18
6 | CC(N)C12CC3CC(CC(C3)C1)C2 (stereo not shown) [Rimantadine] |  | 321 |  | > 167 | 13.8 | 427 | 0.97 | IC50 (in vitro; [10]): 311 µM; IC50 at 96 h [2, 11]: > 167 µM; selectivity ratio [4, 13]: 23; Activity against P. falciparum (in words) (P. falciparum strain K1): selective activities; selectivity ratio (P. falciparum strain K1; [12]): 321
7 | CN1CCC(=C2c3ccccc3CC(=O)c3sccc32)CC1 [Ketotifen] |  | 141 |  | > 97 | 15.2 | > 291 | 0.75 | IC50 (in vitro; [10]): 147 µM; IC50 at 96 h [2, 11]: > 97 µM; Activity against P. falciparum (in words) (P. falciparum strain K1): selective activities; selectivity ratio (P. falciparum strain K1; [12]): 196
8 | CCc1nc(N)nc(N)c1-c1ccc(Cl)cc1 [Pyrimethamine] | 2.51 | 5.71 | > 12.1 | > 12.1 | 6.75 | 278 | 9.85 | 
9 | CC(C)(C)NC(=O)[C@@H]1C[C@@H]2CCCC[C@@H]2CN1C[C@@H](O)[C@H](Cc1ccccc1)NC(=O)[C@H](CC(N)=O)NC(=O)c1ccc2ccccc2n1 [Saquinavir] | 18.2 | 17.1 | > 44.7 | > 44.7 | 12.3 | 77.4 | 11.9 | 
10 | CC(C)CN(C[C@@H](O)[C@H](Cc1ccccc1)NC(=O)O[C@H]1CCOC1)S(=O)(=O)c1ccc(N)cc1 [Amprenavir] |  | 105 | > 59.3 | > 59.3 | 28.5 | 113 | 15.2 | IC50 (in vitro): 160 µM
11 | NC(=O)c1cnccn1 [Pyrazinamide] | 458 | 565 | > 244 | > 244 | > 812 | > 812 | 179 | 
12 | COC(=O)N[C@H](C(=O)N[C@@H](Cc1ccccc1)[C@@H](O)CN(Cc1ccc(-c2ccccn2)cc1)NC(=O)[C@@H](NC(=O)OC)C(C)(C)C)C(C)(C)C [Atazanavir (Sulfate), Atazanavir] |  | 33.3 |  | > 37.5 | 12.7 | 24.1 | 7.95 | IC50 (in vitro; [10]): 46.5 µM; IC50 at 96 h [2, 11]: > 37.5 µM
13 | CO[C@H]1/C=C/O[C@@]2(C)Oc3c(C)c(O)c4c(O)c(c5c(nc6cc(C)ccn65)c4c3C2=O)NC(=O)/C(C)=C\C=C\[C@H](C)[C@H](O)[C@@H](C)[C@@H](O)[C@@H](C)[C@H](OC(C)=O)[C@@H]1C [Rifaximin] | 88 |  |  |  |  |  | 0.92 | IC50 ([1]; read-out: T. cruzi IC50): 40.2 µM; IC50 at 96 h [2, 14]: > 38.2 µM; IC50 [3, 15]: > 38.2 µM; IC50 ([4]; read-out: T. b. rhod. IC50): 17.1 µM; Activity against T. b. rhodesiense (in words) ([4]; in vitro): devoid of antitrypanosomal activity; IC50 [5, 16]: 15 µM; selectivity ratio (P. falciparum strain K1; [12]): 96
14 | CN1CCC(=C2c3ccccc3CCc3sccc32)CC1 [Pizotifen] |  | 30.6 |  | > 33.9 | 3.99 | 215 | 1.86 | IC50 (in vitro; [10]): 45 µM; IC50 at 96 h [2, 11]: > 102 µM; selectivity ratio [4]: 11
15 | NC12CC3CC(CC(C3)C1)C2 [Amantadine] | 215 | 371 | > 198 | > 198 | 52.8 | > 595 | 5.67 | 
16 | CN(C)CCCN1c2ccccc2Sc2ccc(C(F)(F)F)cc21 [Triflupromazine] |  |  |  |  | 1.42 |  |  | IC50 (in vitro; [10]): 18.5 µM; IC50 ([1]; read-out: T. cruzi IC50): 15 µM; MCC at 96 h [2, 14]: 28.4 µM; IC50 [3, 15]: > 8.51 µM; selectivity ratio [4, 13]: 13; IC50 [5, 16]: 79.8 µM; IC50 (P. falciparum strain K1; [17]): 2.72 µM
17 | c1ccc(-c2ccc(C(c3ccccc3)n3ccnc3)cc2)cc1 (stereo not shown) [Bifonazole] | 39.3 | 0.003 | > 32.2 | > 32.2 | 26.8 | 5.48 | 3.18 | 
18 | CN(C)c1ccc(O)c2c1C[C@H]1C[C@H]3[C@H](N(C)C)C(O)=C(C(N)=O)C(=O)[C@@]3(O)C(O)=C1C2=O [Minocycline] |  |  |  |  |  |  |  | IC50 (in vitro; Cytotox. L6 IC50): 9.42 µM; IC50 ([1]; read-out: T. cruzi IC50): 22.3 µM; IC50 at 96 h [2, 14]: > 21.9 µM; IC50 [3, 15]: > 21.9 µM; IC50 ([4]; read-out: T. b. rhod. IC50): 36.6 µM; IC50 [5, 16]: 45.7 µM; IC50 (P. falciparum strain K1; [17]): 3.58 µM
19 | CN/C(=N/CCSCc1nc[nH]c1C)NC#N [Cimetidine] | 302 | 351 | > 119 | > 119 | > 396 | > 396 | 29.2 | 
20 | Cc1cn([C@H]2C[C@H](N=[N+]=[N-])[C@@H](CO)O2)c(=O)[nH]c1=O [Zidovudine] | 207 | 156 | > 112 | > 112 | 140 | > 374 | 175 | 
21 | NC(=O)c1cccnc1 [Nicotinamide] | > 737 | > 737 | > 246 | > 246 | > 737 | > 737 | > 40.9 | 
22 | CCn1cc(C(=O)O)c(=O)c2cc(F)c(N3CCNCC3)nc21 [Enoxacin] |  |  |  |  |  |  |  | IC50 (in vitro; Cytotox. L6 IC50): 25 µM; IC50 ([1]; read-out: T. cruzi IC50): 163 µM; IC50 at 96 h [2, 14]: > 93.7 µM; IC50 [3, 15]: > 93.7 µM; IC50 ([4]; read-out: T. b. rhod. IC50): 113 µM; IC50 [5, 16]: > 312 µM; IC50 (P. falciparum strain K1; [17]): 76.8 µM
23 | CC(C)(C)NC(=O)[C@@H]1CN(Cc2cccnc2)CCN1C[C@@H](O)C[C@@H](Cc1ccccc1)C(=O)N[C@H]1c2ccccc2C[C@H]1O [Indinavir (Sulfate), Indinavir] |  | 93.5 | > 42.3 | > 42.3 | 48.2 | > 141 | 6.03 | IC50 (in vitro): > 141 µM
24 | CC(=O)[C@H]1CC[C@H]2[C@@H]3CC[C@H]4C[C@](C)(O)CC[C@]4(C)[C@H]3CC[C@]12C [Ganaxolone] |  |  |  |  |  |  |  | IC50 (in vitro): 23.5 µM; IC50 ([1]; read-out: T. cruzi IC50): 65 µM; IC50 at 96 h [2, 14]: > 90.2 µM; IC50 [3, 15]: > 90.2 µM; IC50 ([4]; read-out: T. b. rhod. IC50): 5.47 µM; IC50 [5, 16]: 42.5 µM; IC50 (P. falciparum strain K1; [17]): > 15 µM
25 | Nc1nc(N)c2nc(-c3ccccc3)c(N)nc2n1 [Triamterene] | 8.53 | 22.7 | > 11.8 | > 11.8 | 21.7 | 307 | 17.2 | 
26 | CCN(CC)CCCC(C)Nc1ccnc2cc(Cl)ccc12 (stereo not shown) [Chloroquine (Diphosphate), Chloroquine] |  |  |  |  | 3.81 |  | 0.17 | IC50 (in vitro): 50.6 µM; IC50 ([1]; read-out: T. cruzi IC50): 99.2 µM; IC50 at 96 h [2, 14]: > 58.9 µM; IC50 [3, 15]: > 58.9 µM; selectivity ratio [4]: 13; IC50 ([5]; read-out: L. don. axen. IC50): > 196 µM; selectivity ratio (P. falciparum strain K1): 298; IC50 (P. falciparum strain K1; read-out: IC50 P. falc. K1): 0.13 µM
